ChEMBL document CHEMBL1201862, “PubChem BioAssay data set” (2004)
Calls of active or inactive are those of the source.

Key:
[1] = biological target: Alkaline phosphatase, placental type (Homo sapiens, UniProt P05187); test: PLAP enzyme inhibitors, confirmation, biochemical, luminescence (AID 1512); type: functional
[2] = biological target: T1, Alkaline phosphatase, tissue-nonspecific isozyme (Homo sapiens, UniProt P05186); test: human TNAP enzyme inhibitors, SAR follow-up, biochemical, luminescent, dose response (AID 1056)
T1 sequence (P05186 whole entry): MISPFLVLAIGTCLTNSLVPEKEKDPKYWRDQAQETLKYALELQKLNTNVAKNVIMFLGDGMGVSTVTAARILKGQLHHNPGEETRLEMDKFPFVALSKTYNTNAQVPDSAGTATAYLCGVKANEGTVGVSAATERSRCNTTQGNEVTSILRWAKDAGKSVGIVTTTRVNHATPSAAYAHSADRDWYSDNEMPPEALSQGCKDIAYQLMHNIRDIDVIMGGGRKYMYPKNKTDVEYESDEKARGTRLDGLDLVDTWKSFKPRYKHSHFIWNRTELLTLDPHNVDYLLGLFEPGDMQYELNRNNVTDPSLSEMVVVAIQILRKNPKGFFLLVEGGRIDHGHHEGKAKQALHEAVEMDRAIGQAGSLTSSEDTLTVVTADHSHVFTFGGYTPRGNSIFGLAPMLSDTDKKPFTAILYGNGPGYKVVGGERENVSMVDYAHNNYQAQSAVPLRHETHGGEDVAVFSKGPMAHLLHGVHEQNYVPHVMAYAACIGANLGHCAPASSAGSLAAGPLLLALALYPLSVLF

Mu-type opioid receptor = Mu-type opioid receptor (Homo sapiens, UniProt P35372); test: SAR Analysis of Antagonists of the MOR Receptor using an Image-Based Assay - Set 3. [Related pubchem assays (depositor defined):AID1777, AID1785, AID1786, AID1966, AID2133, AID2136, AID2284, AID2285, AID2420]; type: functional
[3] = biological target: T2, Kappa-type opioid receptor (Homo sapiens, UniProt P41145); test: SAR analysis of small molecule antagonists of the kappa opioid receptor via a luminescent beta-arrestin assay - Set 6. [Related pubchem assays (depositor defined):AID1777, AID1778, AID1785, AID1786, AID1966, AID2133, AID2136, AID2285]; type: functional
[4] = biological target: T2, Kappa-type opioid receptor; test: SAR analysis of small molecule antagonists of the kappa opioid receptor via a luminescent beta-arrestin assay - Set 4. [Related pubchem assays (depositor defined):AID1777, AID1778, AID1785, AID1786, AID1966, AID2133, AID2136, AID2285]; type: functional
[5] = biological target: Delta-type opioid receptor (Homo sapiens, UniProt P41143); test: SAR Analysis of Antagonists of the DOR Receptor using an Image-Based Assay - Set 3. [Related pubchem assays (depositor defined):AID1777, AID1785]; type: functional;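 further: U2OS cells expressing DOR1 and beta-arrestin GFP stimulated with 100 nM SNC80; imaging of GFP-tagged beta-arrestin moving into spots after receptor activation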
[6] = biological target: T2, Kappa-type opioid receptor; test: SAR analysis of Antagonists of the Kappa Opioid Receptor (KOR) using an Image-Based Assay - Set 4. [Related pubchem assays (depositor defined):AID1777, AID1785]; type: functional
[7] = biological target: T2, Kappa-type opioid receptor; test: SAR analysis of small molecule antagonists of the kappa opioid receptor via a luminescent beta-arrestin assay - Set 3. [Related pubchem assays (depositor defined):AID1777, AID1778, AID1785, AID1786, AID1966, AID2133, AID2136, AID2285, AID2495]; type: functional
[8] = biological target: T2, Kappa-type opioid receptor; test: SAR analysis of Antagonists of the Kappa Opioid Receptor (KOR) using an Image-Based Assay - Set 3. [Related pubchem assays (depositor defined):AID1777, AID1785]; type: functional
[9] = tested on: Streptococcus sp. 'group A'; test: growth inhibition of control SK(-) GAS strain, dose response, counter-screen for streptokinase expression inhibitor project, luminescence, kanamycin, BacTiterGlo, confirmation (AID 1900); type: functional, organism-based
Streptokinase A = biological target: T3, Streptokinase A (Streptococcus pyogenes serotype M1, UniProt P10520); test: S. pyogenes streptokinase expression inhibitors, potency, dose response, plasminogen activation absorbance, OD405 (AID 1914); type: functional, Streptococcus pyogenes M1 GAS;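 further: secreted streptokinase activity via plasminogen activation per viability signal from cell pellet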
T3 sequence (P10520 whole entry): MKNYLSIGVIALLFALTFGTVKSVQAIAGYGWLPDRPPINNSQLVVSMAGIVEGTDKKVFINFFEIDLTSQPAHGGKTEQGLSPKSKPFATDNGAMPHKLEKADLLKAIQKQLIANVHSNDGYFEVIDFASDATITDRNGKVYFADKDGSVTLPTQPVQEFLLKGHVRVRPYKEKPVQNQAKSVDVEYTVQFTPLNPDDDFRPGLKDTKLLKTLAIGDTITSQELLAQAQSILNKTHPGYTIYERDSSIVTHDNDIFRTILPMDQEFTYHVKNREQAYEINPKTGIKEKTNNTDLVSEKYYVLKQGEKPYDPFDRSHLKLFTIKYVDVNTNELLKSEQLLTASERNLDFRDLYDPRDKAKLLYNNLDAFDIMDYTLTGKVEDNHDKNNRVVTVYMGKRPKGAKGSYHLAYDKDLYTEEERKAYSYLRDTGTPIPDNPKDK

Streptococcus = test: Group A Streptococcus viability loss, dose response, counter-screen for streptokinase expression inhibitor project, luminescence, BacTiterGlo (AID 1915); type: functional, organism-based;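 further: potency for reduction of bacterial viability or growth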
[10] = biological target: DNA dC->dU-editing enzyme APOBEC-3A (Homo sapiens, UniProt P31941); test: APOBEC3A DNA deaminase inhibitors, dose response, biochemical (AID 504722); type: functional
[11] = biological target: DNA dC->dU-editing enzyme APOBEC-3G (Homo sapiens, UniProt Q9HC16); test: Dose Response confirmation of small molecule APOBEC3G DNA Deaminase Inhibitors via a fluorescence-based single-stranded DNA deaminase assay. [Related pubchem assays (depositor defined):AID493012, AID493028]; type: functional
Sequence of DNA dC->dU-editing enzyme APOBEC-3G (Q9HC16 whole entry): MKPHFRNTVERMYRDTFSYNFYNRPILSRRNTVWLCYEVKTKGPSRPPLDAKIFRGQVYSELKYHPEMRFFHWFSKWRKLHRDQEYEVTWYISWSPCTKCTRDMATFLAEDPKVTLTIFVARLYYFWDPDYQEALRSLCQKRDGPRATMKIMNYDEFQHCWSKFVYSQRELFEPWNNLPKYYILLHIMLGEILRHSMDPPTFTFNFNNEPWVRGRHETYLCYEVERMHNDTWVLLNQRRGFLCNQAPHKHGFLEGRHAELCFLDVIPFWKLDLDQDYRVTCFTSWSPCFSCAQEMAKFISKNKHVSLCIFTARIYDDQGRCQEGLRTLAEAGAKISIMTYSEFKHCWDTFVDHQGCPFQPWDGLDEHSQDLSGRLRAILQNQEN

T2 sequence (P41145 whole entry): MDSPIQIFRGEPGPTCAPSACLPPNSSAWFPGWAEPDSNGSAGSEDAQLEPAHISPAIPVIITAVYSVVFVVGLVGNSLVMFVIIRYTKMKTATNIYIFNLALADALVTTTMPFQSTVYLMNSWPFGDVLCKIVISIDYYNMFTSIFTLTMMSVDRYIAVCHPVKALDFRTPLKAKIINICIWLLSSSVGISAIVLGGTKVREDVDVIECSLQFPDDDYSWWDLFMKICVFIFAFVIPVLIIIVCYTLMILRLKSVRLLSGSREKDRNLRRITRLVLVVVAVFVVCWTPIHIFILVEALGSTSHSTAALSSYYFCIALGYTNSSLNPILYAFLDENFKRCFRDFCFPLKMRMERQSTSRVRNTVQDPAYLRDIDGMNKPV
Sequence of Delta-type opioid receptor (P41143 whole entry): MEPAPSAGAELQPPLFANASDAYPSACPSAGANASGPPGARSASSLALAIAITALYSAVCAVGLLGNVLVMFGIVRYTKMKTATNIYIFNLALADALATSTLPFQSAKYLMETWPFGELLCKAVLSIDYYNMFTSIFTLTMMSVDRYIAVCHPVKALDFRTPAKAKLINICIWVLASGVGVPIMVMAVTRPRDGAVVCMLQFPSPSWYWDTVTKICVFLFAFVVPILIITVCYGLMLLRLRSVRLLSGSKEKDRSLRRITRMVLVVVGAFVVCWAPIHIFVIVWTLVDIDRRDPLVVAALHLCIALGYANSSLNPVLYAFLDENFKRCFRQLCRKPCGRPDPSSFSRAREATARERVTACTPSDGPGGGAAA
Sequence of Mu-type opioid receptor (P35372 whole entry): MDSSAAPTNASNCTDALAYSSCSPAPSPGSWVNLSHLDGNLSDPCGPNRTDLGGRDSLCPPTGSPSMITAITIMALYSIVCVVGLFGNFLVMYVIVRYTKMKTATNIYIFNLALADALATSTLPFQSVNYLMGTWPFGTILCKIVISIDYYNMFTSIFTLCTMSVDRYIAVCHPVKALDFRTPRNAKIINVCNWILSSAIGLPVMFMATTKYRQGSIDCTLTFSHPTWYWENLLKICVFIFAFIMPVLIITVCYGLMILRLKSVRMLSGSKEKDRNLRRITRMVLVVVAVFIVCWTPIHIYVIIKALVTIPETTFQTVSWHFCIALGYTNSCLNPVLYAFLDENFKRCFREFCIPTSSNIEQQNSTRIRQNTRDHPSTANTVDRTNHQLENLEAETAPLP
Sequence of Alkaline phosphatase, placental type (P05187 whole entry): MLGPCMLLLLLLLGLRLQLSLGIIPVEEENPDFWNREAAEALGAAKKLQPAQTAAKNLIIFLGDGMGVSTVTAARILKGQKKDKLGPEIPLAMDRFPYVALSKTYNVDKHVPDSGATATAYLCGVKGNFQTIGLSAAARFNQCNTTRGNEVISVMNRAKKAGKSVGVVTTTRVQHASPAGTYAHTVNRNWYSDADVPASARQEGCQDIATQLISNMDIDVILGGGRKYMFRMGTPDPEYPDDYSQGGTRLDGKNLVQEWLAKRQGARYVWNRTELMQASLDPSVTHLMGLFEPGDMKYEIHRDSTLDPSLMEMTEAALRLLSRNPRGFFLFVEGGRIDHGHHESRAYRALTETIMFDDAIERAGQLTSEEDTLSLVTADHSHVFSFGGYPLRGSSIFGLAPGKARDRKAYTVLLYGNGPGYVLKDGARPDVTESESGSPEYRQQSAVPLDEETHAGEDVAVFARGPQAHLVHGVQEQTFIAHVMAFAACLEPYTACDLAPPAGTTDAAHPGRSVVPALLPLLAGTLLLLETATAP
Sequence of DNA dC->dU-editing enzyme APOBEC-3A (P31941 whole entry): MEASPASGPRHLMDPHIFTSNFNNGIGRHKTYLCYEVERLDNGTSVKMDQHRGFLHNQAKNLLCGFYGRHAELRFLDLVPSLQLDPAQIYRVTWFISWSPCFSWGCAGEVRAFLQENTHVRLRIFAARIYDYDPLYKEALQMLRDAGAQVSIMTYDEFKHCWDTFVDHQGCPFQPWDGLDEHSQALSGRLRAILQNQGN

**Q.** Which IC50 [1] does the source give for Cc1ccc(-n2nnnc2SCC(=O)c2ccc(O)c(O)c2)cc1 here?
**A.** 1.58 µM (active)

**Q.** What about the IC50 [2] of the same compound?
**A.** 8.58 µM (active)

**Q.** Which IC50 (Mu-type opioid receptor) does the source give for Cc1ccc(S(=O)(=O)NCc2ccc(C(=O)NCCN(Cc3ccccc3)C(C)(C)C)cc2)cc1 here?
**A.** 1.39 µM (active)

**Q.** And the IC50 [3]?
**A.** 0.0535 µM (active)

**Q.** And the IC50 [4]?
**A.** 0.0763 µM (active)

**Q.** And the IC50 [5]?
**A.** > 32 µM (inactive)

**Q.** What about the IC50 [6] of the same compound?
**A.** 0.0287 µM (active)

**Q.** With O=C(Cn1c(=O)c2cccn2c2cccnc21)NCCCN1CCCCC1 as the compound, how does the IC50 (Mu-type opioid receptor) read?
**A.** > 32 µM (inactive)

**Q.** What about the IC50 [5] of the same compound?
**A.** > 32 µM (inactive)

**Q.** What about the IC50 [7] of the same compound?
**A.** > 20 µM (inactive)

**Q.** And the IC50 [8]?
**A.** > 32 µM (inactive)

**Q.** Which results are given for COc1ccc(OC)c(/C=N/n2c(S)nnc2-c2[nH]nc3c2CCC3)c1?
**A.** EC50 [9]: > 150 µM (not active); EC50 (Streptokinase A): 18.9 µM (inconclusive); EC50 (Streptococcus): > 150 µM (not active); IC50 [10]: > 100 µM (inactive); IC50 [11]: 2.88 µM (active)
